Laboratory results: patent US20240239786A1, “COMPOSITIONS AND METHODS FOR THE TREATMENT AND PREVENTION OF CANCER” (Yale University, priority 2021, published 2024)

Columns and labels:
PEO4 cells = experiment: Caspase 3/7 assay, PEO4; assay type: cell-based; settings: 50 μM olaparib, 24 hr
Description: Cells were pre-treated with 30 μM DB4 for 1 hr and then treated with various concentrations of olaparib for 72 hr. Cell survival was determined by MTS cytotoxicity assay. Data are means±SD (N=3-4). […] EOB calculation was used to quantify the synergy of the combination of DB4 and various concentrations of olaparib in PEO1 or PEO4 cells as shown in FIG. 8A. EOB>0, synergism; EOB=0, additivity; EOB<0, antagonism. […] Cells were pre-treated with 30 μM DB4-F for 1 hr and then treated with various concentrations of olaparib for 72 hr. Cell survival was determined by MTS cytotoxicity assay. Data are means±SD (N=3-4). […] EOB calculation was used to quantify the synergy of the combination of DB4-F and various concentrations of olaparib in PEO1 or PEO4 cells as shown in FIG. 8B. […] Cell survival was determined by MTS cytotoxicity assay. […] Caspase 3/7 activity was expressed as RLU per μg/μl protein. […] Caspase 3/7 activity was expressed as RLU per μg/μl protein. […] Cells were treated and caspase 3/7 activity was measured as described in FIG. 8G and FIG. 8H.
Furthermore, the effects of DB4 on olaparib-induced apoptosis at 24 hr were evaluated. […]
The assay was performed as described previously (Lin Z P et al., 2018, PLOS One, 13:e0207399). […] Total protein concentration of cell lysates was determined as described above. Caspase 3/7 activity was expressed as luminescence units (RLU) per μg/μL protein for each sample.

CDK2 activity = experiment: Western blot time course of CDK2 activity in PEO4 cells; assay type: cell-based; settings: for level of phosphorylated histone H1 (readout of CDK2 activity) / levels of cyclin A2 and CDK2 phosphorylation: 30 μM DB4 or 1 μM triapine; for levels of cyclin A2 and CDK2 phosphorylation: 24 hr
Description: PEO1 cells were treated with 30 μM DB4 or 1 μM triapine for indicated times, pulsed with EdU for 1 hr and subsequently assayed for DNA synthesis inhibition as described in FIG. 2B. The bivariate plots of Alexa Fluor 488 and PE-Cy5 were gated to determine % S phase cells. […] PEO4 cells were treated with 30 μM DB4 or 1 μM triapine for indicated times, pulsed with EdU for 1 hr and subsequently assayed for DNA synthesis inhibition as described in FIG. 2B. The bivariate plots of Alexa Fluor 488 and PE-Cy5 were gated to determine % S phase cells. […] The bivariate plots of Alexa Fluor 488 and PE-Cy5 shown in FIG. 6A and FIG. 6B were gated to determine % cells in G1, S, and G2/M phases. […] PEO4 cells were treated with 30 μM DB4 or 1 μM triapine for various time periods and subjected to western blot analysis for the levels of cyclin A2, p-CDK1/2, p-H1, p-Chk1, and HSC70. The HSC70 protein level was used as a loading control. Cropped gel images of protein bands are presented. Cyclin A2, p-CDK1/2, and p-H1 bands were from re-probing the same blot. p-Chk1 and HSC70 bands were from re-probing the same duplicated blot. […] The CDK2 activity is expressed by the percentage of the p-HI levels relative to that of the 0 hr control is shown. […] Protein was analyzed by western blotting for p-Chk1, p-ATR, p-RPA32, γH2AX, and HSC70. Cropped gel images of protein bands are presented. All protein bands were from re-probing the same blot. DSB end resection is assessed by the level of p-RPA32.
Additional studies focused on determining how DB4 inhibited CDK2 activity in comparison with triapine. […] In contrast, triapine increased the levels of cyclin A2 and CDK2 phosphorylation evidently at 24 hr. Because CDK2 phosphorylation is inhibitory, the level of phosphorylated histone H1, a substrate of CDK2, was determined as a readout of CDK2 activity (Lin Z P et al., 2014, Molecular Cancer Res, 12:381-393) to reconcile this discrepancy. […] The kinetics of CDK2 activity somewhat resembled to the level of DNA synthesis caused by DB4 and triapine.
The methodology was described previously (Lin Z P et al., 2014, Molecular Cancer Res, 12:381-393; Ratner E S et al., 2016, Br J Cancer, 114:777-786). The anti-HSC70 antibody was purchased from Santa Cruz (Santa Cruz, CA). Anti-cyclin A2, anti-phospho-ATR (Thr-1981), anti-phospho-Chk1 (Ser-345), anti-phospho-CDK1/2 (Tyr-15), and anti-Y-H2AX (Ser-139) antibodies were from Cell Signaling (Danvers, MA). Anti-phospho-RPA32 (S4/S8) and anti-BRCA2 antibodies were from Bethyl Laboratories (Montgomery, TX). Anti-phospho-histone H1 antibody was from Millipore-Sigma (Burlington, MA). To avoid the cross-reaction of secondary antibodies with previously probed primary antibodies, blots were stripped and re-probed with next primary antibodies raised in a different species in an alternate fashion. All images were acquired and processed using the G: BOX gel documentation system and the GeneSnap software (Syngene, Frederick, MD). Brightness and contrast of images were applied equally across the entire gel/blot image and to controls. Images of protein bands were cropped and only brightness-adjusted using the PowerPoint software (Microsoft, Redmond, WA). Quantification of the protein band intensity was performed using the ImageJ software (NIH, Bethesda, MD).

Compound	caspase 3/7 activity, olaparib alone (PEO4 cells)	level of phosphorylated histone H1 (readout of CDK2 activity) (CDK2 activity)	levels of cyclin A2 and CDK2 phosphorylation (CDK2 activity)	Chk1 phosphorylation (CDK2 activity; time course, drug alone)	effect on olaparib-induced caspase 3/7 activity (PEO4 cells; DB4 starting at 7.5 μM)
O=C(c1cc(Cc2n[nH]c(=O)c3ccccc23)ccc1F)N1CCN(C(=O)C2CC2)CC1 [olaparib, reference compound]	minor increase in caspase 3/7 activity	–	–	–	–
C=CCn1c(SCc2cccc(Cl)c2)nnc1C1CCN(Cc2nc3ccccc3s2)CC1 [DB4, 2-[(4-{4-allyl-5-[(3-chlorobenzyl)thio]-4H-1,2,4-triazol-3-yl}-1-piperidinyl)methyl]-1,3-benzothiazole]	–	down-regulation of phosphorylated histone H1 at 24 hr	downregulated	did not induced Chk1 phosphorylation	markedly augmented
NC(=S)NN=Cc1ncccc1N [triapine, 3-aminopyridine-2-carboxaldehyde-thiosemicarbazone, reference compound]	–	reduced the level of phosphorylated histone H1 earlier starting at 3 hr	increased	–	–
